The record followed here is patent publication US9469645B2, “Compounds and compositions for the treatment of parasitic diseases” (Novartis AG, priority 2009, dated 2016).

One assay concerns NF54. Nature of the assay: parasite proliferation assay in infected red blood cells (SYBR Green I), NF54 strain. The class given is cell-based. The settings on record: Plasmodium falciparum, 3D7 / NF54, Erythrocyte; cell marked (NF54): NF54 strain instead of 3D7; read-out: EC50 (NF54), printed in the 3D7 strain column. An excerpt: (§1) Compounds of the invention can be assayed to measure their capacity to inhibit proliferation of parasitemia in infected red blood cells. The proliferation is quantified by the addition of SYBR Green I (INVITROGEN)® dye which has a high affinity for double stranded DNA.

Assay [1] deals with W2 strain. As to the kind of experiment: parasite proliferation assay in infected red blood cells (SYBR Green I), W2 strain. In kind it is cell-based. The settings on record: Erythrocyte.
Source text: as §1

Assay [2] concerns the target cannabinoid receptor 1 (CB1) (Homo sapiens, UniProt P21554). As to the kind of experiment: cannabinoid receptor 1 (CB1) IC50. The class given is binding. The settings on record: read-out: IC50 against CB1.
Assay [3] has as its system Trypanosoma brucei Lister 427 strain. As to the kind of experiment: Trypanosoma brucei proliferation assay (Cell Titer Glo). The settings on record: Lister 427 bloodstream form, 48 hours, read-out: EC50, proliferation of T. brucei. In kind it is cell-based. An excerpt:
Compounds of the invention can be assayed to measure their capacity to inhibit proliferation of kinetoplastid parasite Trypanosoma brucei. The proliferation is quantified by the addition of Cell Titer Glo (Promega®) a luminescent cell viability assay that measures the number of viable cells in culture based on the quantification of cellular ATP amount, which is an indicator of metabolically active cells.
The following assay illustrates the invention without in any way limiting the scope of the invention. This parasite proliferation assay measures the increase in parasite growth using an assay that measures ATP activity, Cell Titer Glo®.
Trypanosoma brucei Lister 427 strain is grown in HMI-9 Trypanosome media for T. brucei bloodstream form. 30 μl of HMI-9 media is dispensed into 384 well assay plates. 200 nl of compounds of the invention (in DMSO), including anti-trypanosome controls (Pentamidine and suramin), are then transferred into the assay plates, as well as DMSO alone to serve as a negative control for inhibition. Then 25 μl of a suspension of T. brucei culture in HMI-9 media is dispensed into the assay plates. The final concentration of parasites in culture corresponds to 1.7% of 0.5 uM ATP activity with Cell Titer Glo® in HMI-9 media. […] The plates are then read for luminescence.
(In general: In ATP-based viability assays light output follows the ATP content of the culture.)

The target of assay [4] is mitogen-activated protein kinase-activated protein kinase 2 (MapKap2 or MK-2) (Homo sapiens, UniProt P49137). Nature of the assay: MK-2 enzyme inhibition, single point concentration. In kind it is biochemical.
mitogen-activated protein kinase-activated protein kinase 2 (MapKap2 or MK-2), sequence (P49137 whole entry): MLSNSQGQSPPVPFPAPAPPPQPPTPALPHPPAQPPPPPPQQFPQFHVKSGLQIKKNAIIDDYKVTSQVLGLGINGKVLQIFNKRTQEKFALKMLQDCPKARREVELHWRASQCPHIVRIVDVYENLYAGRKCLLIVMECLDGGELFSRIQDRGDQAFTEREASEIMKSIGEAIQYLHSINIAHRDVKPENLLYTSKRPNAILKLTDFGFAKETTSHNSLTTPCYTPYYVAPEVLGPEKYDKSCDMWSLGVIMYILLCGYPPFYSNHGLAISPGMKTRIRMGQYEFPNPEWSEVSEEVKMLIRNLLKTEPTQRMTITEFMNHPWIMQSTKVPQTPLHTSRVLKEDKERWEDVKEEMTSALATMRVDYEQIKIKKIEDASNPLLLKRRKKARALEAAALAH
The subject of the next assay is 3D7 P. falciparum strain. As to the kind of experiment: parasite proliferation assay in infected red blood cells (SYBR Green I). The class given is cell-based, Plasmodium falciparum. The settings on record: Plasmodium falciparum, 3D7, Erythrocyte, 3D7 strain; read-out: EC50 3D7 strain. The essentials:
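P. falciparum 3D7 grown in O+ human erythrocytes to 3–8% parasitemia and exposed to compounds. Proliferation read as the increase in parasite DNA. Detection used SYBR Green I in saponin/triton-X/EDTA lysis buffer, with overnight lysis at room temperature.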

The test system of assay [5] is W2 strain. Nature of the assay: parasite proliferation assay in infected red blood cells (SYBR Green I), W2 strain. The class given is cell-based, Plasmodium falciparum. The settings on record: Plasmodium falciparum, Erythrocyte.
Source text: as §1

cannabinoid receptor 1 (CB1), sequence (P21554 whole entry, species assumed): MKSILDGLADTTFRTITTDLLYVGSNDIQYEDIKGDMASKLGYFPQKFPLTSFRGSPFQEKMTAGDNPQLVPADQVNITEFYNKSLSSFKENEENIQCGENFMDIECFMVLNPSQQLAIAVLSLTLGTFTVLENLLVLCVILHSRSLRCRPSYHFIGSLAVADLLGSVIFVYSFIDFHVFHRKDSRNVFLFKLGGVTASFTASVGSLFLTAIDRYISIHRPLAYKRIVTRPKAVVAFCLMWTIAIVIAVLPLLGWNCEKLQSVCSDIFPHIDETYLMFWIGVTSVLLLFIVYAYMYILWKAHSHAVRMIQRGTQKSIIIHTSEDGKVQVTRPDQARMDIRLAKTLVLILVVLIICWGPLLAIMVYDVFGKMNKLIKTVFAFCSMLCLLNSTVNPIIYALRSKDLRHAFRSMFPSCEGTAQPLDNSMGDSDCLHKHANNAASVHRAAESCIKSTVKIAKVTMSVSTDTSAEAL

Regarding `COc1ccc(-c2ccc3n2[B-](F)(F)[N+]2=C(C)C(CCC(=O)NCCCCCC(=O)NCC(=O)N4CCn5c(nc(-c6ccc(F)cc6)c5Nc5ccc(F)cc5)C4(C)C)=C(C)C2=C3)cc1` [Compound 732], the EC50 came to 1220 nM with NF54 and 1440 nM in the assay on W2 strain [1] (Plasmodium falciparum).
As to `CC1(C)c2nc(-c3ccc(F)cc3)c(CC3CCCCC3)n2CCN1C(=O)CN` [Compound 699], in the assay with NF54, the EC50 is 678 nM.
Same read-out and setting: the same measure for `CC1(C)c2nc(-c3ccc(F)cc3)c(Oc3ccc(F)c(F)c3)n2CCN1C(=O)CN` [Compound 711]: 34 nM.
Take `CC(C)(N)C(=O)N1CCn2c(nc(-c3ccc(F)cc3)c2Nc2ccc(F)c(F)c2)C1` [Example 29, 2-amino-1-(3-(3,4-difluorophenylamino)-2-(4-fluorophenyl)-5,6-dihydroimidazo[1,2-a]pyrazin-7(8H)-yl)-2-methylpropan-1-one]: the IC50 (usually the concentration that gives 50% inhibition) in assay [2] was above 30000 nM. The results for the EC50 (in assay [3]; with 3D7 P. falciparum strain; in the assay on W2 strain [1]) were 7000 nM, 30 nM and 36 nM, respectively. Besides, in assay [4], the “inhibition of MK-2” value came out at 15%.
On to `CC1(C)c2nc(-c3ccc(F)cc3)c(Nc3ccc(F)cc3)n2CC(=O)N1CCO` [Compound 688], for which the EC50 in the assay with NF54 was determined as 106 nM; with W2 strain [1] (Plasmodium falciparum), 134 nM.
For `CC1(C)c2nc(-c3ccc(F)cc3)c(Nc3ccc(F)cc3)n2CCN1C(=O)CNC(=O)CCC1=[N+]2C(=Cc3ccc(-c4ccccc4)n3[B-]2(F)F)C=C1` [Compound 731] the same measures were 2270 nM and 5610 nM.
On to `CC1(C)c2nc(-c3ccc(F)cc3)c(Oc3ccc(Cl)cc3)n2CCN1C(=O)CN` [Compound 710], for which, in the assay with NF54, the EC50 amounted to 28 nM.
For `CC1(C)c2nc(-c3ccc(F)cc3)c(Nc3ccc(F)cc3)n2CC(=O)N1CCN` [Compound 687, 7-(2-aminoethyl)-2-(4-fluorophenyl)-3-(4-fluorophenylamino)-8,8-dimethyl-7,8-dihydroimidazo[1,2-a]pyrazin-6(5H)-one], the EC50 amounted to 3420 nM with NF54 and 3350 nM in the assay on W2 strain [1] (Plasmodium falciparum).
`Cc1cc(Oc2c(-c3ccc(F)cc3)nc3n2CCN(C(=O)CN)C3(C)C)ccc1F` [Compound 712]: the EC50 in the assay with NF54 turned out to be 19 nM.
Still for that read-out and setting: the same measure for `Cc1ccc(S(=O)(=O)c2c(-c3ccc(F)cc3)nc3n2CCN(C(=O)CN)C3(C)C)cc1` [Compound 725]: 5210 nM.
`CC(C)[C@H](O)C(=O)N1CCn2c(nc(-c3ccc(F)cc3)c2Nc2ccc(F)cc2)C1` [Compound 470]: the results for the EC50 in the assay on 3D7 P. falciparum strain and in the assay with W2 strain [5] were 10 nM and 12 nM, respectively.
With `CC[C@H](C)[C@H](N)C(=O)N1CCn2c(nc(-c3ccc(F)cc3)c2Nc2ccc(C)cc2)C1` [Compound 481], the results for the EC50 in the assay on 3D7 P. falciparum strain and in the assay with W2 strain [5] were 20 nM and 14 nM, respectively.
For `Cc1ccc(Nc2c(-c3ccc(F)cc3)nc3n2CCN(C(=O)CN)C3(C)C)cc1C#N` [Compound 525] the same measures were 10 nM and 13 nM.
Consider `CC1(C)Cn2c(nc(-c3ccc(F)cc3)c2Nc2ccc(F)cc2)CN1C(=O)CN` [Compound 574], for which the EC50 with 3D7 P. falciparum strain was 80 nM; in the assay with W2 strain [5], 111 nM.
For `CC1(C)NC(=O)Cn2c1nc(-c1ccc(F)cc1)c2Nc1ccc(F)c(F)c1` [Compound 509] the same measures were 130 nM and 134 nM.
For `Cc1ccc(Nc2c(-c3ccc(Cl)c(F)c3)nc3n2CCN(C(=O)C(C)(C)N)C3)cc1` [Compound 521] the same measures were 5000 nM and 3030 nM.
For `Cc1ccc(Nc2c(-c3ccc(F)cc3)nc3n2CCN(C(=O)[C@@H](N)Cc2ccc(F)cc2)C3)cc1` [Compound 483] the same measures were 50 nM and 25 nM.
On to `Cc1ccc(Nc2c(-c3ccc(F)cc3)nc3n2CC(=O)NC3(C)C)cc1Cl` [Compound 546], for which the EC50 with 3D7 P. falciparum strain is 30 nM; in the assay on W2 strain [5] it was 52 nM.
For `CC(C)[C@@H](O)C(=O)N1CCn2c(nc(-c3ccc(F)cc3)c2Nc2ccc(F)cc2)C1` [Compound 471] the same measures were 30 nM and 30 nM.
For `COc1cc(Nc2c(-c3ccc(F)cc3)nc3n2CCN(C(=O)C(C)(C)N)C3)cc(F)c1F` [Compound 427] the same measures were 210 nM and 436 nM.
For `C[C@H]1NC(=O)Cn2c1nc(-c1ccc(F)cc1)c2Nc1ccc(Cl)c(F)c1` [Compound 564] the same measures were 250 nM and 359 nM.
As for `N[C@@H](Cc1cscn1)C(=O)N1CCn2c(nc(-c3ccc(F)cc3)c2Nc2ccc(F)c(F)c2)C1` [Compound 431], the EC50 stood at 70 nM in the assay with 3D7 P. falciparum strain and 80 nM with W2 strain [5].
For `N[C@@H](CC1CCC1)C(=O)N1CCn2c(nc(-c3ccc(F)cc3)c2Nc2ccc(F)c(F)c2)C1` [Compound 429] the same measures were 20 nM and 36 nM.
On to `Cc1ccc(Nc2c(-c3ccc(F)c(C)c3)nc3n2CCN(C(=O)CN)C3)cc1` [Compound 517], for which the EC50 in the assay on 3D7 P. falciparum strain came out at 50 nM; with W2 strain [5] it was 51 nM.
For `Cc1cc(Nc2c(-c3ccc(F)cc3)nc3n2CCN(C(=O)CN)C3(C)C)ccc1F` [Compound 495] the same measures were 90 nM and 39 nM.
For `CC1(C)c2nc(-c3ccc(F)cc3)c(Nc3ccc(F)c(C#N)c3)n2CCN1C(=O)CN` [Compound 522] the same measures were 1.7 nM and 2 nM.
For `Cc1ccc(Nc2c(-c3ccc(F)cc3)nc3n2CCNC3(C)C)cc1` [Compound 415] the same measures were 10 nM and 13 nM.
On to `Cc1ccc(Nc2c(-c3ccc(Cl)c(F)c3)nc3n2CCNC3)cc1` [Compound 498], for which the EC50 with 3D7 P. falciparum strain stood at 6340 nM; in the assay on W2 strain [5], 6740 nM.
For `CC(C)N(c1ccc(Cl)c(F)c1)c1c(-c2ccc(F)cc2)nc2n1CCNC2` [Compound 444] the same measures were 7220 nM and 5960 nM.
For `CN[C@@H](Cc1ccc(Cl)cc1)C(=O)N1CCn2c(nc(-c3ccc(F)cc3)c2Nc2ccc(C)cc2)C1` [Compound 400] the same measures were 180 nM and 105 nM.
As for `C[C@@H]1c2nc(-c3ccc(F)cc3)c(Nc3ccc(Cl)c(F)c3)n2CCN1C(=O)CN` [Compound 596], the EC50 was determined as 30 nM in the assay on 3D7 P. falciparum strain and 29 nM in the assay on W2 strain [5].
On to `N[C@@H](Cc1cscn1)C(=O)N1CCn2c(nc(-c3ccc(F)cc3)c2Nc2ccc(F)cc2)C1` [Compound 476], for which the EC50 amounted to 40 nM with 3D7 P. falciparum strain and 27 nM in the assay on W2 strain [5].
For `CC1(C)NC(=O)Cn2c1nc(-c1ccc(F)cc1)c2Nc1ccc(Cl)cc1` [Compound 508], the EC50 is 130 nM with 3D7 P. falciparum strain and 126 nM with W2 strain [5].
Regarding `Cc1ccc(C[C@H](N)C(=O)N2CCn3c(nc(-c4ccc(F)cc4)c3Nc3ccc(F)cc3)C2)cc1` [Compound 474], the results for the EC50 with 3D7 P. falciparum strain and in the assay with W2 strain [5] were 130 nM and 88 nM, respectively.
For `O=C([C@@H]1CCN1)N1CCn2c(nc(-c3ccc(F)cc3)c2Nc2ccc(Cl)cc2)C1` [Compound 462] the same measures were 50 nM and 37 nM.
For `CC(C)[C@@H](O)C(=O)N1CCn2c(nc(-c3ccc(F)cc3)c2Nc2ccc(F)c(F)c2)C1` [Compound 430] the same measures were 10 nM and 19 nM.
For `CC1(C)c2nc(-c3ccc(F)cc3)c(Nc3cccc(NS(C)(=O)=O)c3)n2CCN1C(=O)CN` [Compound 552] the same measures were 2520 nM and 4480 nM.
Turning to `Cc1ccc(Nc2c(-c3ccc(F)cc3)nc3n2CCN(C(=O)[C@H](C)NCc2ccccc2)C3)cc1` [Compound 403], the results for the EC50 with 3D7 P. falciparum strain and in the assay on W2 strain [5] were 510 nM and 543 nM, respectively.
For `CC(C)(C)[C@H](N)C(=O)N1CCn2c(nc(-c3ccc(F)cc3)c2Nc2ccc(Cl)cc2)C1` [Compound 463] the same measures were 40 nM and 24 nM.
For `N[C@H](C(=O)N1CCn2c(nc(-c3ccc(F)cc3)c2Nc2ccc(Cl)cc2)C1)c1ccc(F)cc1` [Compound 457] the same measures were 20 nM and 11 nM.
For `CC1(C)NCCn2c1nc(-c1ccc(F)cc1)c2Nc1ccc(F)c(F)c1` [Compound 422] the same measures were 10 nM and 21 nM.
